Like-named read-outs stand apart in the source and are kept apart here.

The text below walks through data of PMC6516726 (ACS Catalysis, 2018).

Assay [1] deals with PETNR. Also noted: method as in earlier work. As to conditions: PETNR−coenzyme analogue complex; cited from earlier work.
Assay [2] deals with L25A PETNR (Enterobacter cloacae, UniProt P71278, L26A). As to conditions: for A2 (amplitude of kobs2 out of total absorbance change) / kobs1 / kobs2: pH 7.0.
Assay [3] addresses L25I PETNR (Enterobacter cloacae, UniProt P71278, L26I). The note with it: for kobs1 / A2 (amplitude of kobs2 out of total absorbance change) / kobs2: 10 mM NADPH or 25 mM NADH, pH 7.0.
Assay [4] addresses T1, WT PETNR (Enterobacter cloacae, UniProt P71278). Description: pH dependence of FMN reduction of WT PETNR in MTEN buffer. Details: made in house. It is filed as biochemical, Enterobacter Cloacae PB2. How it is done:
(R)-[4-2H]-NADPH at pH 6, pH 7 and pH9 (A) and the corresponding temperature dependencies of the observed primary kinetic isotope effects (B). The measurements were performed in MTEN buffer (50 mM MES, 25 mM Tris, 25 mM ethanola-mine, and 100 mM NaCl), which has a useful buffering capacity and minimal change in ionic strength over the pH range 6-9 in which PETNR is stable; we attempted testing PETNR in pH 5 as well, but the enzyme is unstable at this pH. The observed rate constants of FMN reduction at pH 7 in MTEN buffer are essentially the same to those measured in 50 mM potassium phosphate buffer, pH 7 and similar observation are valid for the KIEs values (Table S3).The rate of FMN reduction is essentially insensitive to pH across the whole temperature range (5-40 °C), and also that KIEs values are essentially not affected by changes in pH (the rate of FMN reduction by (R)-[4-2H]-NADPH is independent of pH as well across all temperatures studied; see Table S3 for extracted thermodynamic parameters). Although these experiments cannot completely exclude any kinetic […]
of H-transfer and protonation (which would lead to pH-dependent rates) which makes it very likely that the observed rate are reporting directly on the H-transfer step.
Table S3. Extracted Thermodynamic Parameters from pH Dependence Studies.
(kJ mol-1) (J mol-1 K-1) (kJ mol-1 K-1)

The target in assay [5] is T1, WT PETNR. Description: Stopped-flow FMN reduction (reductive half-reaction, hydride transfer) of WT PETNR by coenzyme. As to conditions: for kobs1 / A2 (amplitude of kobs2 out of total absorbance change) / kobs2: 10 mM NADPH or 25 mM NADH, pH 7.0.
[6] abbreviates: 5 °C, 10 mM NADPH or 25 mM NADH.
[7] abbreviates: 10 °C, 10 mM NADPH or 25 mM NADH.
Where [8] appears, read: 20 °C, 10 mM NADPH or 25 mM NADH.
The mark [9] stands for this setting: 25 °C, 50 mM potassium phosphate pH 7.0, 20 μM enzyme, fast phase.
The mark [10] stands for this setting: 25 °C, 10 mM NADPH or 25 mM NADH.
Where [11] appears, read: 30 °C, 10 mM NADPH or 25 mM NADH.
[12] abbreviates: 35 °C, 10 mM NADPH or 25 mM NADH.
The mark [13] stands for this setting: 40 °C, third phase, 10 mM NADPH or 25 mM NADH.
Where [14] appears, read: 40 °C, 10 mM NADPH or 25 mM NADH.
Setting [15] is: T0 = 298 K, fit of kobs1 (5–40 °C) to eq 1.
Where [16] appears, read: 25 °C, 50 mM potassium phosphate pH 7.0, 20 μM enzyme.

Sequence of L25I PETNR (P71278 entry or part of it L26I): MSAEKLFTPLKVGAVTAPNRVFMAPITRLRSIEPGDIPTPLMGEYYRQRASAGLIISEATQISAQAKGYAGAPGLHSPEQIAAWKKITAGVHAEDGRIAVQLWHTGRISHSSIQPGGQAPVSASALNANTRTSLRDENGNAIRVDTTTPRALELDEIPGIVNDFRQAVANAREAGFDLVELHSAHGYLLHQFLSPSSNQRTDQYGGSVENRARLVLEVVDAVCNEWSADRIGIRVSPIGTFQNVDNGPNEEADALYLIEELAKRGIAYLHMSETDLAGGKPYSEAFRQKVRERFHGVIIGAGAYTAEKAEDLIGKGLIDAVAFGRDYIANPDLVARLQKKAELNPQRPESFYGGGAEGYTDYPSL
Sequence of L25A PETNR (P71278 entry or part of it L26A): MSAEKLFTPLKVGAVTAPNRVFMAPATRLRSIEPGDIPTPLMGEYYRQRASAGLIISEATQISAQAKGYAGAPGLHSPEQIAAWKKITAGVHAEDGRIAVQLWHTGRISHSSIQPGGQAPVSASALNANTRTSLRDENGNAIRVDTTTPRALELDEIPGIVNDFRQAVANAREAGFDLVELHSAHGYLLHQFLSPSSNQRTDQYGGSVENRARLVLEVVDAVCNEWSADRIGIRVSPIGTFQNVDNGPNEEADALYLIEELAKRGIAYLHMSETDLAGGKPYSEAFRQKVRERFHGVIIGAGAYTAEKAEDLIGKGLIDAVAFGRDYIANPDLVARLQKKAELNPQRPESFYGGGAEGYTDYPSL
T1 sequence (P71278 entry or part of it): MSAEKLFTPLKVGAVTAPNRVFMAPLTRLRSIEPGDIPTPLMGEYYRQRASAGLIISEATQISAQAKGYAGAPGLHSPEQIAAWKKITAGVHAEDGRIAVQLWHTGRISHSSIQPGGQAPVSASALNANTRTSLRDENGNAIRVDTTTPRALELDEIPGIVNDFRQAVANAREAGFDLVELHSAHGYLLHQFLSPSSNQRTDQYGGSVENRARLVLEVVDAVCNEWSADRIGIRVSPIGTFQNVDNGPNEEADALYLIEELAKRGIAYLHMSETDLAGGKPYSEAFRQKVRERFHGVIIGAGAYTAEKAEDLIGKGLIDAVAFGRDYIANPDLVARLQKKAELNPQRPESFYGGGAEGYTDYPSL

By Kd is commonly meant the constant that tells how readily two partners part at equilibrium. With `NC(=O)C1=CN([C@@H]2O[C@H](COP(=O)(O)OP(=O)(O)OC[C@H]3O[C@@H](n4cnc5c(N)ncnc54)[C@H](O)[C@@H]3O)[C@@H](O)[C@H]2O)CCC1` [NADH4, 1,4,5,6-tetrahydro-NAD], the equilibrium dissociation constant (Kd) in assay [1] was 140 µM.
For `NC(=O)C1=CN([C@@H]2O[C@H](COP(=O)(O)OP(=O)(O)OC[C@H]3O[C@@H](n4cnc5c(N)ncnc54)[C@H](OP(=O)(O)O)[C@@H]3O)[C@@H](O)[C@H]2O)CCC1` [NADPH4], in assay [1], the Kd is 130 µM.
In the case of `NC(=O)C1=CN([C@@H]2O[C@H](COP(=O)(O)OP(=O)(O)OC[C@H]3O[C@@H](n4cnc5c(N)ncnc54)[C@H](OP(=O)(O)O)[C@@H]3O)[C@@H](O)[C@H]2O)C=CC1` [NADPH], the “A2 (amplitude of kobs2 out of total absorbance change)” value was 2.93 ± 0.55% in assay [2] (setting [6]); 2.70 ± 0.56% in assay [2] (setting [7]); 3.58 ± 0.47% in assay [2] (setting [8]); 4.73 ± 0.26% in assay [2] (setting [10]); 7.50 ± 0.21% in assay [2] (setting [11]); 16.48 ± 0.53% in assay [2] (setting [12]). The “A2 (amplitude of kobs2 out of total absorbance change)” value in assay [2] (setting [14]) stood at 25.54 ± 0.91%; in assay [3] (20 °C), 3.28 ± 1.62%; in assay [3] (35 °C), 5.72 ± 0.36%; in assay [3] (40 °C), 10.89 ± 0.63%; in assay [5] (35 °C), 1.41 ± 0.23%; in assay [5] (40 °C) it was 2.29 ± 0.35%. Besides, the kobs1 was found to be 19.18 ± 0.22 s⁻¹ in assay [2] (setting [6]); 26.03 ± 0.17 s⁻¹ in assay [2] (setting [7]); 34.93 ± 1.25 s⁻¹ in assay [2] (15 °C, 10 mM NADPH or 25 mM NADH); 53.77 ± 1.15 s⁻¹ in assay [2] (setting [10]); 59.63 ± 2.29 s⁻¹ in assay [2] (setting [11]); 68.39 ± 8.69 s⁻¹ in assay [2] (setting [12]). Also, the kobs1 in assay [2] (setting [14]) was 71.16 ± 6.56 s⁻¹; in assay [3] (5 °C) it was 10.12 ± 0.04 s⁻¹; in assay [3] (10 °C), 13.47 ± 0.06 s⁻¹; in assay [3] (15 °C), 18.07 ± 0.05 s⁻¹; in assay [3] (20 °C) it was 24.33 ± 0.52 s⁻¹; in assay [3] (25 °C), 30.24 ± 0.42 s⁻¹. Moreover, the kobs1 is 36.74 ± 0.28 s⁻¹ in assay [3] (30 °C); 49.82 ± 1.14 s⁻¹ in assay [3] (40 °C); 11.31 ± 0.09 s⁻¹ in assay [5] (5 °C); 15.23 ± 0.15 s⁻¹ in assay [5] (10 °C); 20.32 ± 0.25 s⁻¹ in assay [5] (15 °C); 26.28 ± 0.31 s⁻¹ in assay [5] (20 °C). Further, the kobs1 in assay [5] (25 °C) was found to be 33.74 ± 0.46 s⁻¹; in assay [5] (35 °C), 50.46 ± 0.75 s⁻¹; in assay [5] (40 °C), 58.49 ± 0.50 s⁻¹. In addition, the kobs2 is 2.42 ± 0.48 s⁻¹ in assay [2] (setting [8]); 1.54 ± 0.45 s⁻¹ in assay [2] (setting [10]); 0.51 ± 0.17 s⁻¹ in assay [2] (setting [12]); 0.26 ± 0.06 s⁻¹ in assay [2] (setting [14]); 2.25 ± 2.63 s⁻¹ in assay [3] (20 °C); 2.57 ± 0.62 s⁻¹ in assay [3] (30 °C). The values for the kobs2 in assay [5] (35 °C) and in assay [5] (40 °C) were 1.19 ± 0.92 s⁻¹ and 1.09 ± 0.16 s⁻¹, respectively. Besides, in assay [2] (25 °C), the “increase in KS vs WT PETNR” value came to 2 fold. Also, the kred in assay [2] (setting [9]) is given as 55.75 ± 0.35 s^–1; in assay [3] (setting [9]), 29.49 ± 0.49 s^–1; in assay [5] (setting [9]), 33.43 ± 0.22 s^–1. Besides, the “rate of H-transfer, faster than WT PETNR” value in assay [2] (25 °C, kred vs WT) is recorded as 60%. In addition, the “A3 (amplitude of third phase)” value in assay [2] (setting [13]) is 19.34 ± 0.54%. Further, the kobs3 in assay [2] (setting [13]) came out at 3.55 ± 1.03. Also, in assay [2] (40 °C, sum of two slow phases (kobs2 and kobs3)), the “total absorbance change attributed to kobs2” value was roughly 40%. Besides, the “ΔCp^⧧” value was “–0.92 ± 0.12 kJ mol^–1 K^–1” in assay [2] (setting [15]), “–0.43 ± 0.07 kJ mol^–1 K^–1” in assay [3] (setting [15]) and “–0.50 ± 0.05 kJ mol^–1 K^–1” in assay [5] (setting [15]). In addition, the “ΔHT0^⧧” value was determined as 23.3 ± 1.2 kJ mol^–1 in assay [2] (setting [15]), 30.4 ± 0.6 kJ mol^–1 in assay [3] (setting [15]) and 30.4 ± 0.3 kJ mol^–1 in assay [5] (setting [15]). Moreover, the “ΔST0^⧧” value is recorded as “–133.7 ± 4.1 J mol^–1 K^–1” in assay [2] (setting [15]), “–114.9 ± 2.0 J mol^–1 K^–1” in assay [3] (setting [15]) and “–113.9 ± 0.9 J mol^–1 K^–1” in assay [5] (setting [15]). Besides, the KS in assay [3] (setting [16]) worked out at 130 ± 8 µM; in assay [5] (setting [16]) it was 103 ± 4 µM. Further, the “ΔCp⧧” value is -0.58 ± 0.10 kJ mol-1 K-1 in assay [4] (pH 6, MTEN buffer); -0.61 ± 0.08 kJ mol-1 K-1 in assay [4] (pH 7, MTEN buffer); -0.45 ± 0.12 kJ mol-1 K-1 in assay [4] (pH 9, MTEN buffer). The “ΔHT0⧧” value in assay [4] (pH 6, MTEN buffer) is 6.5 ± 0.14 kcal/mol; in assay [4] (pH 7, MTEN buffer), 6.6 ± 0.17 kcal/mol; in assay [4] (pH 9, MTEN buffer), 6.91 ± 0.17 kcal/mol. Besides, the “ΔST0⧧” value in assay [4] (pH 6, MTEN buffer) is recorded as -124.3 ± 2.0 J mol-1 K-1; in assay [4] (pH 7, MTEN buffer) it was -122.7 ± 1.6 J mol-1 K-1; in assay [4] (pH 9, MTEN buffer), -118.6 ± 2.3 J mol-1 K-1.
